Measurements as given in patent US10004701B2, “Methods and compositions for treating infection” (UNIVERSITY OF ROCHESTER, priority 2012, dated 2018).
Counter-ions that a name gives are not always drawn. Like-named read-outs stand apart in the source and are kept apart here.

Legend:
Experiment in all cases: AK assay 384-well format, Prestwick library screening
[1] = tested on: S. aureus strain USA300-0114; format: cell-based, Staphylococcus aureus; settings: 50 μM final drug concentration; for fold induction at 50 µM: Staphylococcus aureus, USA300, 3 h
E. cloacae = format: cell-based, Enterobacter cloacae; settings: 50 μM final drug concentration; for fold induction at 50 µM: Enterobacter cloacae, 3 h
[2] = tested on: A. baumannii strain 98-37-09; format: cell-based, Acinetobacter baumannii; settings: 50 μM final drug concentration; for fold induction at 50 µM: Acinetobacter baumannii, 983709, 3 h
E. faecium = format: cell-based, Enterococcus faecium; settings: 50 μM final drug concentration; for fold induction at 50 µM: Enterococcus faecium, 3 h
K. pneumoniae = format: cell-based, Klebsiella pneumoniae; settings: 50 μM final drug concentration; for fold induction at 50 µM: Klebsiella pneumoniae, 3 h
E. coli = format: cell-based, Escherichia coli; settings: 50 μM final drug concentration; for fold induction at 50 µM: Escherichia coli, 3 h
P. aeruginosa = format: cell-based, Pseudomonas aeruginosa; settings: 50 μM final drug concentration; for fold induction at 50 µM: Pseudomonas aeruginosa, 3 h
[3] = planktonic S. aureus, cutoff for positive-scoring molecules 3-fold increase, read-out: AK-based Prestwick Library Screening Results, S. aureus (increase in extracellular AK activity)
[4] = planktonic E. cloacae, cutoff for positive-scoring molecules 3-fold increase, read-out: AK-based Prestwick Library Screening Results, E. cloacae (increase in extracellular AK activity)
[5] = planktonic A. baumannii, cutoff for positive-scoring molecules 3-fold increase, read-out: AK-based Prestwick Library Screening Results, A. baumannii (increase in extracellular AK activity)
[6] = planktonic E. faecium, cutoff for positive-scoring molecules 3-fold increase, read-out: AK-based Prestwick Library Screening Results, E. faecium (increase in extracellular AK activity)
[7] = planktonic K. pneumoniae, cutoff for positive-scoring molecules 3-fold increase, read-out: AK-based Prestwick Library Screening Results, K. pneumoniae (increase in extracellular AK activity)
[8] = planktonic E. coli, cutoff for positive-scoring molecules 3-fold increase, read-out: AK-based Prestwick Library Screening Results, E. coli (increase in extracellular AK activity)
[9] = planktonic P. aeruginosa, cutoff for positive-scoring molecules 3-fold increase, read-out: AK-based Prestwick Library Screening Results, P. aeruginosa (increase in extracellular AK activity)
[10] = 384-well format, cutoff for positive-scoring molecules 3-fold increase, read-out: AK-based Prestwick Library Screening Results, S. aureus (increase in extracellular AK activity)
[11] = 384-well format, cutoff for positive-scoring molecules 3-fold increase, read-out: AK-based Prestwick Library Screening Results, E. cloacae (increase in extracellular AK activity)
[12] = 384-well format, cutoff for positive-scoring molecules 3-fold increase, read-out: AK-based Prestwick Library Screening Results, A. baumannii (increase in extracellular AK activity)
[13] = 384-well format, cutoff for positive-scoring molecules 3-fold increase, read-out: AK-based Prestwick Library Screening Results, E. faecium (increase in extracellular AK activity)
[14] = 384-well format, cutoff for positive-scoring molecules 3-fold increase, read-out: AK-based Prestwick Library Screening Results, K. pneumoniae (increase in extracellular AK activity)
[15] = 384-well format, cutoff for positive-scoring molecules 3-fold increase, read-out: AK-based Prestwick Library Screening Results, E. coli (increase in extracellular AK activity)
[16] = 384-well format, cutoff for positive-scoring molecules 3-fold increase, read-out: AK-based Prestwick Library Screening Results, P. aeruginosa (increase in extracellular AK activity)

Structure (SMILES): C#C[C@]1(O)CC[C@H]2[C@@H]3CCC4=CC(=O)CC[C@]4(C)[C@H]3CC[C@@]21C [Ethisterone]
- fold induction at 50 µM ([1]; 384-well format, […], read-out: AK-based Prestwick Library Screening Results, S. aureus (increase in extracellular AK activity)): 0.8
- fold induction at 50 µM (E. cloacae; 384-well format, […], read-out: AK-based Prestwick Library Screening Results, E. cloacae (increase in extracellular AK activity)): 1.1
- fold induction at 50 µM ([2]; 384-well format, […], read-out: AK-based Prestwick Library Screening Results, A. baumannii (increase in extracellular AK activity)): 0.9
- fold induction at 50 µM (E. faecium; 384-well format, […], read-out: AK-based Prestwick Library Screening Results, E. faecium (increase in extracellular AK activity)): 0.9
- fold induction at 50 µM (K. pneumoniae; 384-well format, […], read-out: AK-based Prestwick Library Screening Results, K. pneumoniae (increase in extracellular AK activity)): 0.8
- fold induction at 50 µM (E. coli; 384-well format, […], read-out: AK-based Prestwick Library Screening Results, E. coli (increase in extracellular AK activity)): 1
- fold induction at 50 µM (P. aeruginosa; 384-well format, […], read-out: AK-based Prestwick Library Screening Results, P. aeruginosa (increase in extracellular AK activity)): 1

Structure (SMILES): Cc1cccc(C)c1NC(=O)C(C)N (stereo not shown) [Tocainide hydrochloride]
- fold induction at 50 µM ([1]; planktonic S. aureus, positive cutoff 3-fold increase, read-out: AK-based Prestwick library screening result, S. aureus (fold increase in extracellular AK activity)): 1.1
- fold induction at 50 µM (E. cloacae; planktonic E. cloacae, positive cutoff 3-fold increase, read-out: AK-based Prestwick library screening result, E. cloacae (fold increase in extracellular AK activity)): 1.4
- fold induction at 50 µM ([2]; planktonic A. baumannii, positive cutoff 3-fold increase, read-out: AK-based Prestwick library screening result, A. baumannii (fold increase in extracellular AK activity)): 1.6
- fold induction at 50 µM (E. faecium; planktonic E. faecium, positive cutoff 3-fold increase, read-out: AK-based Prestwick library screening result, E. faecium (fold increase in extracellular AK activity)): 1
- fold induction at 50 µM (K. pneumoniae; planktonic K. pneumoniae, positive cutoff 3-fold increase, read-out: AK-based Prestwick library screening result, K. pneumoniae (fold increase in extracellular AK activity)): 1.1
- fold induction at 50 µM (E. coli; planktonic E. coli, positive cutoff 3-fold increase, read-out: AK-based Prestwick library screening result, E. coli (fold increase in extracellular AK activity)): 1.2
- fold induction at 50 µM (P. aeruginosa; planktonic P. aeruginosa, positive cutoff 3-fold increase, read-out: AK-based Prestwick library screening result, P. aeruginosa (fold increase in extracellular AK activity)): 1.1

Structure (SMILES): Cc1cc(=O)oc2cc(O)ccc12 [Hymecromone]
- fold induction at 50 µM ([1]; planktonic, cutoff for positive-scoring molecules 3-fold increase, read-out: AK-based Prestwick Library Screening Results, S. aureus (fold increase in extracellular AK activity)): 1
- fold induction at 50 µM (E. cloacae; planktonic, cutoff for positive-scoring molecules 3-fold increase, read-out: AK-based Prestwick Library Screening Results, E. cloacae (fold increase in extracellular AK activity)): 1.1
- fold induction at 50 µM ([2]; planktonic, cutoff for positive-scoring molecules 3-fold increase, read-out: AK-based Prestwick Library Screening Results, A. baumannii (fold increase in extracellular AK activity)): 0.8
- fold induction at 50 µM (E. faecium; planktonic, cutoff for positive-scoring molecules 3-fold increase, read-out: AK-based Prestwick Library Screening Results, E. faecium (fold increase in extracellular AK activity)): 1
- fold induction at 50 µM (K. pneumoniae; planktonic, cutoff for positive-scoring molecules 3-fold increase, read-out: AK-based Prestwick Library Screening Results, K. pneumoniae (fold increase in extracellular AK activity)): 0.7
- fold induction at 50 µM (E. coli; planktonic, cutoff for positive-scoring molecules 3-fold increase, read-out: AK-based Prestwick Library Screening Results, E. coli (fold increase in extracellular AK activity)): 0.9
- fold induction at 50 µM (P. aeruginosa; planktonic, cutoff for positive-scoring molecules 3-fold increase, read-out: AK-based Prestwick Library Screening Results, P. aeruginosa (fold increase in extracellular AK activity)): 1

Structure (SMILES): CC[C@H](C)C(=O)O[C@H]1C[C@@H](C)C=C2C=C[C@H](C)[C@H](CC[C@@H]3C[C@@H](O)CC(=O)O3)[C@H]21 [Lovastatin]
- fold induction at 50 µM [1, 3]: 0.3
- fold induction at 50 µM (E. cloacae; [4]): 1.2
- fold induction at 50 µM [2, 5]: 1
- fold induction at 50 µM (E. faecium; [6]): 1
- fold induction at 50 µM (K. pneumoniae; [7]): 0.8
- fold induction at 50 µM (E. coli; [8]): 1
- fold induction at 50 µM (P. aeruginosa; [9]): 0.8

Structure (SMILES): N[C@@H](C(=O)N[C@@H]1C(=O)N2C(C(=O)O)=C(Cl)CS[C@H]12)c1ccccc1 [Cefaclor]
- fold induction at 50 µM [1, 3]: 0.5
- fold induction at 50 µM (E. cloacae; [4]): 0.7
- fold induction at 50 µM [2, 5]: 1.5
- fold induction at 50 µM (E. faecium; [6]): 0.9
- fold induction at 50 µM (K. pneumoniae; [7]): 2.5
- fold induction at 50 µM (E. coli; [8]): 10.7
- fold induction at 50 µM (P. aeruginosa; [9]): 0.5

Structure (SMILES): CN1CCN(C(c2ccccc2)c2ccc(Cl)cc2)CC1 (stereo not shown) [Chlorcyclizine hydrochloride]
- fold induction at 50 µM ([1]; cutoff for positive-scoring molecules 3-fold increase, read-out: AK-based Prestwick Library Screening Results, S. aureus (fold increase in extracellular AK activity)): 1.2
- fold induction at 50 µM (E. cloacae; cutoff for positive-scoring molecules 3-fold increase, read-out: AK-based Prestwick Library Screening Results, E. cloacae (fold increase in extracellular AK activity)): 1.6
- fold induction at 50 µM ([2]; cutoff for positive-scoring molecules 3-fold increase, read-out: AK-based Prestwick Library Screening Results, A. baumannii (fold increase in extracellular AK activity)): 1.5
- fold induction at 50 µM (E. faecium; cutoff for positive-scoring molecules 3-fold increase, read-out: AK-based Prestwick Library Screening Results, E. faecium (fold increase in extracellular AK activity)): 1
- fold induction at 50 µM (K. pneumoniae; cutoff for positive-scoring molecules 3-fold increase, read-out: AK-based Prestwick Library Screening Results, K. pneumoniae (fold increase in extracellular AK activity)): 1.1
- fold induction at 50 µM (E. coli; cutoff for positive-scoring molecules 3-fold increase, read-out: AK-based Prestwick Library Screening Results, E. coli (fold increase in extracellular AK activity)): 1.3
- fold induction at 50 µM (P. aeruginosa; cutoff for positive-scoring molecules 3-fold increase, read-out: AK-based Prestwick Library Screening Results, P. aeruginosa (fold increase in extracellular AK activity)): 1.1

Structure (SMILES): CN1[C@@H](C[C@@H](O)c2ccccc2)CCC[C@H]1C[C@H](O)c1ccccc1.Cl [Lobelanidine hydrochloride]
- AK-based Prestwick Library Screening Results, S. aureus (increase in extracellular AK activity) ([1]; planktonic S. aureus, cutoff for positive-scoring molecules 3-fold increase): 0.6
- AK-based Prestwick Library Screening Results, E. cloacae (increase in extracellular AK activity) (E. cloacae; planktonic E. cloacae, cutoff for positive-scoring molecules 3-fold increase): 1.0
- AK-based Prestwick Library Screening Results, A. baumannii (increase in extracellular AK activity) ([2]; planktonic A. baumannii, cutoff for positive-scoring molecules 3-fold increase): 1.0
- AK-based Prestwick Library Screening Results, E. faecium (increase in extracellular AK activity) (E. faecium; planktonic E. faecium, cutoff for positive-scoring molecules 3-fold increase): 0.9
- AK-based Prestwick Library Screening Results, K. pneumoniae (increase in extracellular AK activity) (K. pneumoniae; planktonic K. pneumoniae, cutoff for positive-scoring molecules 3-fold increase): 0.8
- AK-based Prestwick Library Screening Results, E. coli (increase in extracellular AK activity) (E. coli; planktonic E. coli, […]): 1.0
- AK-based Prestwick Library Screening Results, P. aeruginosa (increase in extracellular AK activity) (P. aeruginosa; planktonic P. aeruginosa, cutoff for positive-scoring molecules 3-fold increase): 1.0

Structure (SMILES): CN(C)C(=O)Oc1cc(OC(=O)N(C)C)cc(C(O)CNC(C)(C)C)c1 (stereo not shown) [Bambuterol hydrochloride]
- fold induction at 50 µM [1, 3]: 1.2
- fold induction at 50 µM (E. cloacae; [4]): 1.2
- fold induction at 50 µM [2, 5]: 1
- fold induction at 50 µM (E. faecium; [6]): 1.1
- fold induction at 50 µM (K. pneumoniae; [7]): 0.9
- fold induction at 50 µM (E. coli; [8]): 1.3
- fold induction at 50 µM (P. aeruginosa; [9]): 1.2

Structure (SMILES): CC(NCCC(c1ccccc1)c1ccccc1)c1ccccc1 (stereo not shown) [Fendiline hydrochloride]
- fold induction at 50 µM [1, 10]: 0.8
- fold induction at 50 µM (E. cloacae; [11]): 0.9
- fold induction at 50 µM [2, 12]: 1.5
- fold induction at 50 µM (E. faecium; [13]): 1.1
- fold induction at 50 µM (K. pneumoniae; [14]): 0.8
- fold induction at 50 µM (E. coli; [15]): 1
- fold induction at 50 µM (P. aeruginosa; [16]): 1.1

Structure (SMILES): O=C(Nc1ccc([N+](=O)[O-])cc1Cl)c1cc(Cl)ccc1O [Niclosamide]
- fold induction at 50 µM [1, 10]: 0.4
- fold induction at 50 µM (E. cloacae; [11]): 0.5
- fold induction at 50 µM [2, 12]: 0.2
- fold induction at 50 µM (E. faecium; [13]): 0.1
- fold induction at 50 µM (K. pneumoniae; [14]): 0.1
- fold induction at 50 µM (E. coli; [15]): 0.1
- fold induction at 50 µM (P. aeruginosa; [16]): 0.1
